In patent US20090124656A1, “Heterocyclic Oxime Compounds a Process for Their Preparation and Pharmaceutical Compositions Containing Them” (LES LABORATOIRES SERVIER, priority 2005, published 2009) one finds reduction in glycaemia, reduction in insulinaemia and reduction in triglyceridaemia data, which are given here for 1 molecule.

SMILES strings stand for the structures.

This experiment deals with ob/ob mouse. The experiment is described as follows: Antidiabetic and hypolipaemic effect in the ob/ob mouse. To be noted: dose of 3 mg/kg for 4 days. Format: in vivo. The text has this: Mutations in laboratory animals and also different sensitivities to dietary regimens have allowed the development of animal models having non-insulin-dependent diabetes and hyperlipidaemia associated with obesity and with resistance to insulin.
Genetic mice models (ob/ob) (Diabetes, 1982, 31 (1), 1-6) and Zucker (fa/fa) rats have been developed by various laboratories in order to understand the physiopathology of those diseases and test the effectiveness of new antidiabetic compounds (Diabetes, 1983, 32, 830-838).
Antidiabetic and Hypolipaemic Effect in the ob/ob Mouse
The 10-week-old female ob/ob mouse (Harlan) is used for the in vivo tests. The animals are kept in a light-darkness cycle of 12 hours at 25° C. The mouse has a basal hyperglycaemia of 2 g/l. The animals are randomly selected with regard to their glycaemia to form groups of six. […] […] The control groups receive the solvents under the same conditions as the treated groups.
The activity of the products is evaluated by measuring glycaemia 24 hours after the final administration and by measuring body weight daily.

Molecule `CCOC(Cc1ccc(OCCN2CCC(C)(C)c3cc(C(=O)C4CCCCC4)ccc32)cc1)C(=O)O` (stereo not drawn) [3-{4-[2-(6-(Cyclohexylcarbonyl)-4,4-dimethyl-3,4-dihydro-1(2H)-quinolinyl)ethoxy]phenyl}-2-ethoxypropanoic acid] gave a reduction in glycaemia of 32%, a reduction in insulinaemia of 56% and a reduction in triglyceridaemia of 57%.
